Results: ChEMBL document CHEMBL3638798, “Metastin derivative and use thereof” (2013)

Target: KiSS-1 receptor (Homo sapiens, UniProt Q969F8)
Experiment: Binding Assay: Binding inhibition assay using human GPR54.

Sequence of KiSS-1 receptor (Q969F8 whole entry): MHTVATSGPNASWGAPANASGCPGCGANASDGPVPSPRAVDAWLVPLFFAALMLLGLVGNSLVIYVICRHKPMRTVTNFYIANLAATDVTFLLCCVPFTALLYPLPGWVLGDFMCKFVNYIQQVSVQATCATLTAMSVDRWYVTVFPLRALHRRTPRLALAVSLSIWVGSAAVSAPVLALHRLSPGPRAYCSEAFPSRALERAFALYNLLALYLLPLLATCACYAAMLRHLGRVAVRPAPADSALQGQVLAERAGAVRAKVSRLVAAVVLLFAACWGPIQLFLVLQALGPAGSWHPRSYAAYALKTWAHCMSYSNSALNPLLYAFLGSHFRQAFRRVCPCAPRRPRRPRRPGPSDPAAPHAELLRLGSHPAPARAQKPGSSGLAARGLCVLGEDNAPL

CNCC(=O)N[C@@H](CC(C)C)C(C)=O
IC50: 0.71 nM
